# Experimental data from PubChem BioAssay (NCI).
#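 Dose response: 5 concentrations. Exposure: 48 h. Format: 96-well plates. Endpoint: linear interpolation; highest concentration if not reached. Abbreviation: GI50, concentration required for 50% inhibition of growth. TGI is the concentration that stops growth completely.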
# Tests used:
# Assay in all cases: DTP human tumour cell line panel, 48 h
# [1] = test system: CAKI-1 renal
# [2] = test system: MCF7 breast
# [3] = test system: MDA-MB-435
# [4] = test system: MOLT-4 leukemia
# [5] = test system: PC-3 prostate
# [6] = test system: RPMI-8226 leukemia
# [7] = test system: SR leukemia
# [8] = test system: UACC-257 melanoma
# [9] = test system: UO-31 renal
# [10] = test system: MDA-MB-231 breast
Structure (SMILES),GI50 [1] [µM],TGI [1] [µM],GI50 [2] [µM],TGI [2] [µM],GI50 [3] [µM],TGI [3] [µM],GI50 [4] [µM],TGI [4] [µM],GI50 [5] [µM],TGI [5] [µM],GI50 [6] [µM],TGI [6] [µM],GI50 [7] [µM],TGI [7] [µM],GI50 [8] [µM],TGI [8] [µM],GI50 [9] [µM],TGI [9] [µM],GI50 [10] [µM],TGI [10] [µM]
COc1cc(-c2cc3ncccc3c3nc(OCCN(C)C)c4cccnc4c23)cc(OC)c1OC,0.468,3.14,0.389,14.8,0.671,3.75,0.314,2.71,0.731,> 100,0.372,2.79,0.244,2.07,0.567,4.06,0.28,1.32,,
COc1cc2c3c(n(CCCN(CCCN(CCCn4c5c(c6ccccc6c4=O)C(=O)c4ccccc4-5)C(=O)OC(C)(C)C)C(=O)OC(C)(C)C)c(=O)c2cc1OC)-c1cc2c(cc1C3=O)OCO2,9.85,> 100,,,> 100,> 100,> 100,> 100,> 100,> 100,> 100,> 100,33.6,> 100,> 100,> 100,> 100,> 100,28.5,> 100
[O-]/N=[N+](/[O-])C1CCCCC1=[N+]1CCOCC1 (stereo unspecified),,> 100,,,,,,> 100,,,,> 100,,> 100,,> 100,,> 100,,
O=C(C=Nc1ccccc1C(=O)[O-])c1cccs1.O=C(C=Nc1ccccc1C(=O)[O-])c1cccs1.[Ni+2],,> 100,,,,,,> 100,,,,,,> 100,,> 100,,> 100,,
O=C([O][Hg][c]1ccccc1)c1ccccc1,1.8,3.66,,,1.55,3.1,1.38,5.7,3.29,14.7,1.23,4.56,0.382,2.35,1.38,3.03,1.47,2.89,1.86,4.62
COc1cc2c(cc1OC)C(C#N)N(C(=O)c1ccccc1)C=C2OC(=O)c1ccccc1 (stereo unspecified),,,,,,,,> 100,,,,> 100,,> 100,,53,,39.3,,
Cc1cc(=O)[nH]c(CNC(=O)c2ccc3ccccc3c2)n1,,> 100,,,,,,> 100,,,,,,> 100,,> 100,,> 100,,
O=C(CN1CCN(Cc2ccccc2Cl)CC1)NC1CC(=O)c2c(Br)sc(Br)c21 (stereo unspecified),19.9,37.6,18.1,33.8,21.5,52.5,27.1,85.3,16.1,34.6,16.6,38.5,,,22.3,44,17.4,31.8,21.1,39.8
CCc1ccccc1NC(=O)C(=O)C(C#N)c1ccccc1Cl (stereo unspecified),,,,,,,,> 100,,,,> 100,,,,> 100,,> 100,,
O=Cc1cccc2ccc3ccccc3c12,,46.5,,37.4,,49.6,,,,55.5,,,,,,> 100,,> 100,,77.3
O=C1/C(=C/c2ccc([N+](=O)[O-])s2)Oc2cc(Cl)ccc21,,,0.944,> 100,,,,,0.387,1.75,0.382,2.23,0.303,1.24,,,0.317,1.22,0.404,1.75
COC(=O)C1CSC(c2csc(CCN)n2)=N1 (stereo unspecified),,> 100,,,,,,> 100,,,,> 100,,> 100,,> 100,,> 100,,
O=C(COc1ccccc1Cl)N1N=C(c2ccccc2)CC1(O)c1ccccc1 (stereo unspecified),,91.8,,,,,,58.8,,,,32.9,,32.8,,45.2,,35.9,,
CN(C)C1CCN(Cc2ccc(NC(=O)c3cncc(C#Cc4cnc(N)c5ncccc45)c3)cc2C(F)(F)F)CC1,8.44,15.6,,,0.922,1.83,1.55,5.57,7.42,15.5,4.31,17,2.05,50,1.43,3.97,0.999,1.78,0.742,1.61
